# Measurements taken from patent US9604933B2, “Pyrazolochalcones as potential anticancer agents” (COUNCIL OF SCIENTIFIC AND INDUSTRIAL RESEARCH, priority 2013, dated 2017).
# Tests used:
# HT29 = assay: NCI SRB cytotoxicity, colon HT29; format: cell-based; conditions: Homo sapiens, HT-29, 48 h exposure
# Method: (§1) The pyrazolochalcones (7e, 8e, 10e, 11e, 12e, 13e and 8f) have been tested against fifty nine human tumor cell lines derived from nine cancer types (leukemia, non-small cell lung cancer, colon cancer, CNS cancer, melanoma, ovarian cancer, renal cancer, prostate cancer and breast cancer) as per the NCI protocol. For each compound, dose response curves for individual cell lines have been measured at a minimum of five concentrations at 10 fold dilutions. A protocol of 48 h continuous drug exposure has been used, and a sulforhodamine B (SRB) protein assay has been used to estimate cell viability or growth. The concentration for 50% cell growth inhibition (GI50), 50% cell death (LC50, 50% growth) and total cell growth inhibition (TGI, 0% growth) values were tabulated (Table-1). DMSO was used as control to calculate the values of GI50, LC50 and TGI. The compounds 7e, 8e, 10e, 11e, 12e, 13e and 8f has been evaluated for their in vitro cytotoxicity in […] cell lines from nine human cancer types of leukemia (K-562, SR), non-small cell lung (Hop-62, NCI-H226, NCI-H522), colon (HCT-116, HCT-15, HCC-2998), CNS (SF-539), melanoma (SK-MEL-5, UACC-62, M14), ovarian (IGROV1), renal (A498), prostate (PC3) and breast (BT-549, MDA-MB-435, HS578T) origin. The results are expressed as percent of cell growth determined relative to that of untreated control cells (Table 2).
# HL-60(TB) = assay: NCI SRB cytotoxicity, leukemia HL-60(TB); format: cell-based; conditions: Homo sapiens, 48 h exposure
# Method: as §1
# LOX IMVI = assay: NCI SRB cytotoxicity, melanoma LOX IMVI; format: cell-based; conditions: Homo sapiens, 48 h exposure
# Method: as §1
# MALME-3M = assay: NCI SRB cytotoxicity, melanoma MALME-3M; format: cell-based; conditions: Homo sapiens, 48 h exposure
# Method: as §1
# ACHN = assay: NCI SRB cytotoxicity, renal ACHN; format: cell-based; conditions: Homo sapiens, 48 h exposure
# Method: as §1
# 786-0 = assay: NCI SRB cytotoxicity, renal 786-0; format: cell-based; conditions: Homo sapiens, 48 h exposure
# Method: as §1
# Non-small cell lung = assay: NCI SRB cytotoxicity, non-small cell lung panel average; format: cell-based, human; conditions: average of cell lines
# Method: as §1
# (§2) Each cancer type represents the average of six to eight different cancer cell lines.
# NCI/ADR-RES = assay: NCI SRB cytotoxicity, ovarian NCI/ADR-RES; format: cell-based; conditions: Homo sapiens, 48 h exposure
# Method: as §1
# COLO-205 = assay: NCI SRB cytotoxicity, colon COLO-205; format: cell-based; conditions: Homo sapiens, 48 h exposure
# Method: as §1
# Melanoma = assay: NCI SRB cytotoxicity, melanoma panel average; format: cell-based, human; conditions: average of cell lines
# Method: as §1, §2
# SK-MEL-5 = assay: NCI SRB cytotoxicity, melanoma SK-MEL-5; format: cell-based; conditions: Homo sapiens, 48 h exposure
# Method: as §1
# NCI-H522 = assay: NCI SRB cytotoxicity, non-small cell lung NCI-H522; format: cell-based; conditions: Homo sapiens, 48 h exposure
# Method: as §1
# PC-3 = assay: NCI SRB cytotoxicity, prostate PC-3; format: cell-based; conditions: Homo sapiens, 48 h exposure
# Method: as §1
# K-562 = assay: NCI SRB cytotoxicity, leukemia K-562; format: cell-based; conditions: Homo sapiens, K562, 48 h exposure
# Method: as §1
# M14 = assay: NCI SRB cytotoxicity, melanoma M14; format: cell-based; conditions: Homo sapiens, 48 h exposure
# Method: as §1
# MOLT-4 = assay: NCI SRB cytotoxicity, leukemia MOLT-4; format: cell-based; conditions: Homo sapiens, 48 h exposure
# Method: as §1
# SNB-75 = assay: NCI SRB cytotoxicity, CNS SNB-75; format: cell-based; conditions: Homo sapiens, 48 h exposure
# Method: as §1
# CCRF-CEM = assay: NCI SRB cytotoxicity, leukemia CCRF-CEM; format: cell-based; conditions: Homo sapiens, 48 h exposure
# Method: as §1
# MDA-MB-435 = assay: NCI SRB cytotoxicity, melanoma MDA-MB-435; format: cell-based; conditions: Homo sapiens, Melanoma panel MDA-MB-435, 48 h exposure
# Method: as §1
# Breast = assay: NCI SRB cytotoxicity, breast panel average; format: cell-based, human; conditions: average of cell lines
# Method: as §1, §2
# OVCAR-8 = assay: NCI SRB cytotoxicity, ovarian OVCAR-8; format: cell-based; conditions: Homo sapiens, 48 h exposure
# Method: as §1
# SK-MEL-28 = assay: NCI SRB cytotoxicity, melanoma SK-MEL-28; format: cell-based; conditions: Homo sapiens, 48 h exposure
# Method: as §1
# NCIH322M = assay: NCI SRB cytotoxicity, non-small cell lung NCIH322M; format: cell-based; conditions: Homo sapiens, NCI-H322M, 48 h exposure
# Method: as §1
# Renal = assay: NCI SRB cytotoxicity, renal panel average; format: cell-based, human; conditions: average of cell lines
# Method: as §1, §2
# Colon = assay: NCI SRB cytotoxicity, colon panel average; format: cell-based, human; conditions: average of cell lines
# Method: as §1, §2
# BT-549 = assay: NCI SRB cytotoxicity, breast BT-549; format: cell-based; conditions: Homo sapiens, 48 h exposure
# Method: as §1
# Prostate = assay: NCI SRB cytotoxicity, prostate panel average; format: cell-based, human; conditions: average of cell lines
# Method: as §1, §2
# SF-539 = assay: NCI SRB cytotoxicity, CNS SF-539; format: cell-based; conditions: Homo sapiens, 48 h exposure
# Method: as §1
# T-47D = assay: NCI SRB cytotoxicity, breast T-47D; format: cell-based; conditions: Homo sapiens, T47D, 48 h exposure
# Method: as §1
# IGROV1 = assay: NCI SRB cytotoxicity, ovarian IGROV1; format: cell-based; conditions: Homo sapiens, IGROV-1, 48 h exposure
# Method: as §1
# MCF7 = assay: NCI SRB cytotoxicity, breast MCF7; format: cell-based; conditions: Homo sapiens, 48 h exposure
# Method: as §1
# UO-31 = assay: NCI SRB cytotoxicity, renal UO-31; format: cell-based; conditions: Homo sapiens, 48 h exposure
# Method: as §1
# SNB-19 = assay: NCI SRB cytotoxicity, CNS SNB-19; format: cell-based; conditions: Homo sapiens, 48 h exposure
# Method: as §1
# OVCAR-3 = assay: NCI SRB cytotoxicity, ovarian OVCAR-3; format: cell-based; conditions: Homo sapiens, 48 h exposure
# Method: as §1
# SK-MEL-2 = assay: NCI SRB cytotoxicity, melanoma SK-MEL-2; format: cell-based; conditions: Homo sapiens, 48 h exposure
# Method: as §1
# RXF 393 = assay: NCI SRB cytotoxicity, renal RXF 393; format: cell-based; conditions: Homo sapiens, 48 h exposure
# Method: as §1
# SK-OV-3 = assay: NCI SRB cytotoxicity, ovarian SK-OV-3; format: cell-based; conditions: Homo sapiens, 48 h exposure
# Method: as §1
# HCT-116 = assay: NCI SRB cytotoxicity, colon HCT-116; format: cell-based; conditions: Homo sapiens, 48 h exposure
# Method: as §1
# [1] = Homo sapiens, read-out: Log10 GI50 (concentration in mol/L causing 50% growth inhibition) (converted)
# [2] = Homo sapiens, read-out: Log10 LC50 (concentration in mol/L causing 50% cell death) (converted)
compound,measurement,setting,value
"COc1ccc(C(=O)/C=C/c2cc(-c3cc(OC)c(OC)c(OC)c3)n[nH]2)cc1OC [8e, (E)-1-(3,4-dimethoxyphenyl)-3-(3-(3,4,5-trimethoxyphenyl)-1H-pyrazol-5-yl)prop-2-en-1-one]",GI50,HT29,1620 nM
same,GI50,HL-60(TB),1440 nM
same,GI50,LOX IMVI,1380 nM
same,GI50,MALME-3M,1990 nM
same,GI50,ACHN,1660 nM
same,GI50,786-0,1400 nM
same,GI50,Non-small cell lung; [1],1230 nM
same,LC50,Non-small cell lung; [2],6460 nM
same,Log10 TGI (concentration in mol/L causing total growth inhibition (0% growth)),Non-small cell lung,−5.58 mol/L
same,GI50,NCI/ADR-RES,3130 nM
same,GI50,COLO-205,1740 nM
same,GI50,Melanoma; [1],1700 nM
same,LC50,Melanoma; [2],6170 nM
same,Log10 TGI (concentration in mol/L causing total growth inhibition),Melanoma,−5.49 mol/L
same,GI50,SK-MEL-5,1650 nM
same,GI50,NCI-H522,180 nM
same,GI50,PC-3,1360 nM
same,GI50,K-562,1910 nM
same,GI50,M14,1840 nM
same,GI50,MOLT-4,2110 nM
same,GI50,SNB-75,1230 nM
same,GI50,CCRF-CEM,620 nM
same,GI50,MDA-MB-435,1340 nM
same,GI50,Breast; [1],1230 nM
same,CC50,Breast; [2],15100 nM
same,Log10 TGI (concentration in mol/L causing total growth inhibition (0% growth)),Breast,−5.47 mol/L
same,GI50,OVCAR-8,1320 nM
same,GI50,SK-MEL-28,1780 nM
same,GI50,NCIH322M,1520 nM
same,GI50,Renal; [1],1510 nM
same,CC50,Renal; [2],6610 nM
same,Log10 TGI (concentration in mol/L causing total growth inhibition (0% growth)),Renal,−5.51 mol/L
same,GI50,Colon; [1],1410 nM
same,LC50,Colon; [2],6170 nM
same,Log10 TGI (concentration in mol/L causing total growth inhibition),Colon,−5.52 mol/L
same,GI50,BT-549,1440 nM
same,GI50,Prostate; [1],871 nM
same,CC50,Prostate; [2],5250 nM
same,Log10 TGI (concentration in mol/L causing total growth inhibition (0% growth)),Prostate,−5.64 mol/L
same,GI50,SF-539,1270 nM
same,GI50,T-47D,1630 nM
same,GI50,IGROV1,1800 nM
same,GI50,MCF7,820 nM
same,GI50,UO-31,1280 nM
same,GI50,SNB-19,1420 nM
same,GI50,OVCAR-3,1680 nM
same,GI50,SK-MEL-2,1850 nM
same,GI50,RXF 393,1350 nM
same,GI50,SK-OV-3,2790 nM
same,GI50,HCT-116,880 nM
